In ChEMBL document CHEMBL4000176, “Synthesis and SAR study of novel sarsasapogenin derivatives as potent neuroprotective agents and NO production inhibitors” (2017):
Activity calls are given as the source filed them. The calls are words filed in the database; no cut-off is given here.

Tests used:
PC-12 [1] = test: Neuroprotective activity against H2O2-induced cytotoxicity in rat PC12 cells assessed as cell viability at 10 umol/L preincubated for 2 hrs followed by H2O2 addition and measured after 24 hrs by MTT assay (reference value: 18.9 +/- 2.2%); format: functional; conditions: for viability at 10 µM: read-out: Activity
RAW264.7 = test: Inhibition of LPS-induced NO production in mouse RAW264.7 cells at 10 umol/L after 24 hrs preincubated for 30 mins followed by LPS addition measured after 24 hrs by Griess assay relative to control; format: functional
Mus musculus [2] = test: Cognition enhancing effect in scopolamine-induced cognitive impairment mouse model assessed as increase in time spent in target quadrant at 3 mg/kg, ig administered once in a day for 14 consecutive days followed by scopolamine challenge 1 hr post last dose by Morris water maze test; format: functional, organism-based
PC-12 [3] = test: Neuroprotective activity against H2O2-induced cytotoxicity in rat PC12 cells assessed as cell viability at 1 mM preincubated for 2 hrs followed by H2O2 addition and measured after 24 hrs by MTT assay (reference value: 18.9 +/- 2.2%); format: functional; conditions: read-out: Activity
Mus musculus [4] = test: Cognition enhancing effect in scopolamine-induced cognitive impairment mouse model assessed as increase in time spent in target quadrant at 6 mg/kg, ig administered once in a day for 14 consecutive days followed by scopolamine challenge 1 hr post last dose by Morris water maze test; format: functional, organism-based

| Compound | viability at 10 µM (PC-12 [1]) [%] | inhibition at 10 µM (RAW264.7) [%] | further results |
| --- | --- | --- | --- |
| Cc1ccc(CNC(=O)O[C@H]2CC[C@@]3(C)[C@H](CC[C@@H]4[C@@H]3CC[C@]3(C)[C@@H]5[C@H](C[C@@H]43)O[C@]3(CC[C@H](C)CO3)[C@H]5C)C2)cc1 | 39.3 | – | – |
| C[C@H]1CC[C@@]2(OC1)O[C@H]1C[C@H]3[C@@H]4CC[C@@H]5C[C@@H](O)CC[C@]5(C)[C@H]4CC[C@]3(C)[C@H]1[C@@H]2C [SARSASAPOGENIN] | 3.3 | – | – |
| C[C@H]1CC[C@@]2(OC1)O[C@H]1C[C@H]3[C@@H]4CC[C@@H]5C[C@@H](OC(=O)NCc6cccc(Cl)c6)CC[C@]5(C)[C@H]4CC[C@]3(C)[C@H]1[C@@H]2C | 40.3 | 19.3 | – |
| C[C@H]1CC[C@@]2(OC1)O[C@H]1C[C@H]3[C@@H]4CC[C@@H]5C[C@@H](OC(=O)NC(=N)NC#N)CC[C@]5(C)[C@H]4CC[C@]3(C)[C@H]1[C@@H]2C | 23.5 | – | – |
| C[C@H]1CC[C@@]2(OC1)O[C@H]1C[C@H]3[C@@H]4CC[C@@H]5C[C@@H](OC(=O)NCCN)CC[C@]5(C)[C@H]4CC[C@]3(C)[C@H]1[C@@H]2C | – | – | Activity (PC-12 [1]): inactive |
| C[C@H]1CC[C@@]2(OC1)O[C@H]1C[C@H]3[C@@H]4CC[C@@H]5C[C@@H](OC(=O)N6CCCC6)CC[C@]5(C)[C@H]4CC[C@]3(C)[C@H]1[C@@H]2C | 16.1 | – | – |
| C[C@H]1CC[C@@]2(OC1)O[C@H]1C[C@H]3[C@@H]4CC[C@@H]5C[C@@H](OC(=O)N6CCCCC6)CC[C@]5(C)[C@H]4CC[C@]3(C)[C@H]1[C@@H]2C | 20.1 | 28.7 | – |
| C[C@H]1CC[C@@]2(OC1)O[C@H]1C[C@H]3[C@@H]4CC[C@@H]5C[C@@H](OC(=O)NN)CC[C@]5(C)[C@H]4CC[C@]3(C)[C@H]1[C@@H]2C | 11.2 | – | – |
| COc1cc2c(cc1OC)C(=O)C(CC1CCN(Cc3ccccc3)CC1)C2 (centres undefined) | – | – | Activity (Mus musculus [2]): Active |
| C[C@H]1CC[C@@]2(OC1)O[C@H]1C[C@H]3[C@@H]4CC[C@@H]5C[C@@H](OC(=O)NCc6ccc(O)cc6)CC[C@]5(C)[C@H]4CC[C@]3(C)[C@H]1[C@@H]2C | 18.9 | – | – |
| C[C@H]1CC[C@@]2(OC1)O[C@H]1C[C@H]3[C@@H]4CC[C@@H]5C[C@@H](OC(=O)NCc6ccccc6)CC[C@]5(C)[C@H]4CC[C@]3(C)[C@H]1[C@@H]2C | 49.4 | 8.9 | – |
| CC(=O)N[C@@H](CS)C(=O)O [ACETYLCYSTEINE] | – | – | viability at 1000 µM (PC-12 [3]): 35.3% |
| C[C@H]1CC[C@@]2(OC1)O[C@H]1C[C@H]3[C@@H]4CC[C@@H]5C[C@@H](OC(=O)NC6CCCCC6)CC[C@]5(C)[C@H]4CC[C@]3(C)[C@H]1[C@@H]2C | 52.2 | 4.6 | – |
| COc1ccc(CNC(=O)O[C@H]2CC[C@@]3(C)[C@H](CC[C@@H]4[C@@H]3CC[C@]3(C)[C@@H]5[C@H](C[C@@H]43)O[C@]3(CC[C@H](C)CO3)[C@H]5C)C2)cc1 | 21.5 | – | – |
| CC(C)CNC(=O)O[C@H]1CC[C@@]2(C)[C@H](CC[C@@H]3[C@@H]2CC[C@]2(C)[C@@H]4[C@H](C[C@@H]32)O[C@]2(CC[C@H](C)CO2)[C@H]4C)C1 | 48.2 | 20.5 | Activity (Mus musculus [4]): Active |
| C[C@H]1CC[C@@]2(OC1)O[C@H]1C[C@H]3[C@@H]4CC[C@@H]5C[C@@H](OC(=O)N6CCNCC6)CC[C@]5(C)[C@H]4CC[C@]3(C)[C@H]1[C@@H]2C | 3.4 | – | – |
| C[C@H]1CC[C@@]2(OC1)O[C@H]1C[C@H]3[C@@H]4CC[C@@H]5C[C@@H](OC(=O)NCc6ccc(Cl)cc6)CC[C@]5(C)[C@H]4CC[C@]3(C)[C@H]1[C@@H]2C | 49.8 | 21.4 | – |
